# Assay results from US12135333B2, “Detection kit for detecting immunosuppressors in whole blood by high performance liquid chromatography-tandem mass spectrometry and detection method thereof” (Hangzhou Calibra Diagnostics Co., Ltd., priority 2021, dated 2024).
# How the values were obtained:
# [1] = 14 d stability at 37° C. of immunosuppressors in the system suitability solution with different antioxidants (LC-MS/MS peak area); type: physicochemical; details: for Change of content (in words): not adding an antioxidant, system suitability solution and internal standard solution
# Source text: (§1) Supernatant was taken and detected by high performance liquid chromatography-tandem mass spectrometry; and a spectrogram of the standard curve at the lowest point was shown in FIG. 1. Specific analysis conditions were as follows: gradient elution was used to an instrumental method; and the tandem mass spectrum: electrospray ionization (ESI) ion source and positive ion Multiple Reaction Monitoring (MRM) Mode were taken.
# (§2) Antioxidants included 2,6-di-tert-butyl-p-cresol, vitamin E, vitamin C, β-carotene, and sodium metabisulfite.
# [2] = 14 d stability at 37° C. of immunosuppressors in sterile bovine blood with vitamin E at different concentrations; type: physicochemical; details: for Decline of concentration (in words): vitamin E 1.0 mg/mL and 1.5 mg/mL
# [3] = 14 d stability at 37° C. of isotope internal standards in the internal standard solution with different antioxidants (LC-MS/MS peak area); type: physicochemical
# Source text: as §1, §2
# [4] = in vitro experiments; cited from earlier work
# [5] = 14 d at 37° C., antioxidant 2,6-di-tert-butyl-p-cresol
# [6] = 14 d at 37° C., antioxidant Sodium metabisulfite
# [7] = 14 d at 37° C., antioxidant Vitamin C
# [8] = 14 d at 37° C., antioxidant Vitamin E
# [9] = 14 d at 37° C., antioxidant β-carotene
# [10] = 14 d at 37° C., free of adding antioxidant
# [11] = 14 d at 37° C., vitamin E 0.5 mg/mL
# [12] = 14 d at 37° C., vitamin E 1.0 mg/mL
# [13] = 14 d at 37° C., vitamin E 1.5 mg/mL
# [14] = 14 d at 37° C., antioxidant P-carotene
SMILES,"Peak area of system suitability solution [1, 5]","Peak area of system suitability solution [1, 6]","Peak area of system suitability solution [1, 7]","Peak area of system suitability solution [1, 8]","Peak area of system suitability solution [1, 9]","Peak area of system suitability solution [1, 10]",Change of content (in words) ([1]; 14 d at 37° C.),Peak area of system suitability solution ([1]; Initial values),"Sample detection concentration [2, 11]","Sample detection concentration [2, 12]",Decline of concentration (in words) ([2]; 14 d at 37° C.),"Sample detection concentration [2, 13]",Sample detection concentration ([2]; Initial values),"Peak area of internal standard solution [3, 5]","Peak area of internal standard solution [3, 14]","Peak area of internal standard solution [3, 6]","Peak area of internal standard solution [3, 7]","Peak area of internal standard solution [3, 8]","Peak area of internal standard solution [3, 10]",Peak area of internal standard solution ([3]; Initial values),also measured
CO[C@H]1C[C@@H]2CC[C@@H](C)[C@@](O)(O2)C(=O)C(=O)N2CCCC[C@H]2C(=O)O[C@H]([C@H](C)C[C@@H]2CC[C@@H](OCCO)[C@H](OC)C2)CC(=O)[C@H](C)/C=C(\C)[C@@H](O)[C@@H](OC)C(=O)[C@H](C)C[C@H](C)/C=C/C=C/C=C/1C [Everolimus],3533,6256,11782,98290,3599,2401,almost dropped dramatically,111146,62.1 ng/mL,75.3 ng/mL,no obvious decline,75.7 ng/mL,80.1 ng/mL,–,–,–,–,–,–,–,"Decrease of concentration [2, 11]: 22.5%"
"[2H]C([2H])([2H])O[C@H]1C[C@@H]2CC[C@@H](C)[C@@](O)(O2)C(=O)C(=O)N2CCCC[C@H]2C(=O)O[C@H]([C@H](C)C[C@@H]2CC[C@@H](O)[C@H](OC)C2)CC(=O)[C@H](C)/C=C(\C)[C@@H](O)[C@@H](OC)C(=O)[C@H](C)C[C@H](C)/C=C/C=C/C=C/1C [Sirolimus-d3, sirolimus-d3]",–,–,–,–,–,–,–,–,–,–,–,–,–,7033,3308,5301,6664,62889,3768,71424,–
"[2H][13C]([2H])=CC[C@@H]1/C=C(\C)C[C@H](C)C[C@H](OC)[C@H]2O[C@@](O)(C(=O)C(=O)N3CCCC[C@H]3C(=O)O[C@H](/C(C)=C/[C@@H]3CC[C@@H](O)[C@H](OC)C3)[C@H](C)[C@@H](O)C([2H])([2H])C1=O)[C@H](C)C[C@@H]2OC [Tacrolimus-13C-d4, tacrolimus-13C-d4]",–,–,–,–,–,–,–,–,–,–,–,–,–,28579,5494,5764,25618,53397,6069,60178,–
C=CC[C@@H]1/C=C(\C)C[C@H](C)C[C@H](OC)[C@H]2O[C@@](O)(C(=O)C(=O)N3CCCC[C@H]3C(=O)O[C@H](/C(C)=C/[C@@H]3CC[C@@H](O)[C@H](OC)C3)[C@H](C)[C@@H](O)CC1=O)[C@H](C)C[C@@H]2OC [Tacrolimus],27771,8044,30470,69879,8659,7408,almost dropped dramatically,74430,73.3 ng/mL,80.1 ng/mL,no obvious decline,79.0 ng/mL,79.7 ng/mL,–,–,–,–,–,–,–,Immunological competence relative to cyclosporine A [4]: 50-100 times
